Where two headings read alike, the source gives them in different places.

For one data set, the target named is PI3Kγ (Homo sapiens, UniProt P48736). The experiment in a line: PI3Kγ inhibitory activity (Ki value). The data set is classed as biochemical. A digest of the protocol:
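Ki derived from IC50 measured at final compound levels of 50–0.05 μmol/L (HTRF read-out; 40 μmol/L ATP, 10 mmol/L MgCl2, 5 mmol/L DTT), IC50 by logistic or two-point linear fit. ATP Km from Lineweaver-Burk over 0.625–80 μmol/L ATP; Ki = IC50/(1+[ATP]/Km).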

The target of the next data set is T1, hERG channel (IKr) (Homo sapiens, UniProt Q12809).
T1 construct: expressed in transfected cells; host or cells: HEK293
Put plainly: hERG test (whole-cell patch-clamp, IKr in HEK293 cells). Conditions: human, HEK293 cells expressing hERG channel, pH 7.4, inhibition of maximum tail current (IKr), compound 1 μM. The data set is classed as cell-based. A digest of the protocol:
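hERG-expressing HEK293 cells, automated whole-cell patch clamp: hold −80 mV, +50 mV for 2 s, then −50 mV for 2 s to record IKr tail current. Compound in extracellular solution (pH 7.4) for 10 min at room temperature; inhibition of maximum tail current calculated versus pre-application and compared with 0.1% DMSO vehicle.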

Data set [1] can be described thus: Metabolic stability test (pooled human liver microsome). The data set is classed as in vitro ADME. Conditions: percentage of test compound remained after 30 minutes, pooled human liver microsome 0.5 mg protein/mL, 1 mmol/L NADPH, 37° C., compound 0.5 μM. The method in brief: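 Pooled human liver microsomes (0.5 mg protein/mL) incubated with compound and 1 mmol/L NADPH at 37° C. in pH 7.4 Tris buffer for 0 or 30 min. Parent quantified by LC/MS/MS after methanol/acetonitrile quench; value is % remaining at 30 min versus 0 min.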

Another data set concerns the target PI3Kα (Homo sapiens, UniProt P42336). Put plainly: PI3Kα inhibitory activity (Ki value). The data set is classed as biochemical. The method, then:
According to Example 2 above, after 80 μg/mL PI-3 kinase γ of the enzyme solution (80 μg/mL PI-3 kinase γ, 10 mmol/L MgCl2, 5 mmol/L DTT) was changed to 0.8 μg/mL PI-3 kinase α, an inhibition ratio was calculated by a method similar to the method for measuring PI3Kγ inhibitory activity, and then defined as the PI3Kα inhibitory activity.
The α inhibitory activity (Ki value) of a compound was evaluated according to the following procedure.
According to Example 4 above, a Km value for PI3Kα was determined to calculate a Ki value.

The mark [2] stands for this setting: class symbols, read-out: PI3K γ Ki.
The mark [3] stands for this setting: class symbols, read-out: PI3K α Ki.

Chain of PI3Kα (P42336 whole entry, species assumed): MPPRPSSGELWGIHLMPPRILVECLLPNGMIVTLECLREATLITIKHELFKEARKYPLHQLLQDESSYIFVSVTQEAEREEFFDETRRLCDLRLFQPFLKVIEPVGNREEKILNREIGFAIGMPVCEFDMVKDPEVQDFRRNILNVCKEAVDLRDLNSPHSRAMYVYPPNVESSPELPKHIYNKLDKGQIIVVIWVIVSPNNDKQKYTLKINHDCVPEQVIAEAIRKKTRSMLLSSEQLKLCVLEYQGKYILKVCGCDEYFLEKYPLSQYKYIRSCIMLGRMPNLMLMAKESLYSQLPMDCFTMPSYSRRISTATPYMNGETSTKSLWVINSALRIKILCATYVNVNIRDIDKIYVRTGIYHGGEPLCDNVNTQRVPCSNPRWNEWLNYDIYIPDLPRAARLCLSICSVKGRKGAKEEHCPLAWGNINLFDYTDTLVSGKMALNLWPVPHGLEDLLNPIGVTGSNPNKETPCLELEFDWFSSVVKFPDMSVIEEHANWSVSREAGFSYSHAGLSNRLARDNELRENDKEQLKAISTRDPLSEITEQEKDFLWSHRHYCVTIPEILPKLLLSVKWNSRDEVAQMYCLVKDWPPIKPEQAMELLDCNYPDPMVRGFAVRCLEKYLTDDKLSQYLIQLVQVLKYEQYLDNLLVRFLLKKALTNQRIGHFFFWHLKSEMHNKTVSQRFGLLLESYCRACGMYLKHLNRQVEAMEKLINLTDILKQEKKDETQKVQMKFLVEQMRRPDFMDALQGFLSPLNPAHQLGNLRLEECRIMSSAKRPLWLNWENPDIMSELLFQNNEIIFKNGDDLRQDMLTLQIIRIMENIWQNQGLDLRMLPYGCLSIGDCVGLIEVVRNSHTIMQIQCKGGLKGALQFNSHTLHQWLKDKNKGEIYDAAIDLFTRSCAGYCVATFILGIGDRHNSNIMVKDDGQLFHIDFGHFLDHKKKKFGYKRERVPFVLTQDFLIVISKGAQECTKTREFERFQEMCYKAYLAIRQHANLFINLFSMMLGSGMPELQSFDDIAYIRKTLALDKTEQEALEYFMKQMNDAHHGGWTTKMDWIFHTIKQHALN
Chain of PI3Kα (P27986 whole entry partner, species assumed): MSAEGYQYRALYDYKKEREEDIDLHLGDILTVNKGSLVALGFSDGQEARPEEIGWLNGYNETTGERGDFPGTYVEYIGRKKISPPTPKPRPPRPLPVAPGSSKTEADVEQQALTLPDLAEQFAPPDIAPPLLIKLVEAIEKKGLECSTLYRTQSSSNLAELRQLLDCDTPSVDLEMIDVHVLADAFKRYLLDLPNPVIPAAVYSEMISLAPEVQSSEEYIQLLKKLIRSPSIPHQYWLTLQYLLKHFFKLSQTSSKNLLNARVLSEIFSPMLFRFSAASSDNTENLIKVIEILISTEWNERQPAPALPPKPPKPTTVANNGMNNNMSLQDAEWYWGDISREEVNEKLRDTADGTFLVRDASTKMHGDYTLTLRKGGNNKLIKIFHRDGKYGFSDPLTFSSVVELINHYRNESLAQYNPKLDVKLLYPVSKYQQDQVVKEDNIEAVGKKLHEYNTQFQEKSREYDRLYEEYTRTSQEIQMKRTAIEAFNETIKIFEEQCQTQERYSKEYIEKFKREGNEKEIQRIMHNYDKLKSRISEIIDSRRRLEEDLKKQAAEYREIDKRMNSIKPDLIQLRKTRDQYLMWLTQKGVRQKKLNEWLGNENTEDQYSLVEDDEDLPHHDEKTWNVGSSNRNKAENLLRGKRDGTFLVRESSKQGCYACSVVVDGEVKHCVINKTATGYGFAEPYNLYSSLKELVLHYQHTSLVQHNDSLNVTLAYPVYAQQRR
Chain of PI3Kγ (P48736 whole entry, species assumed): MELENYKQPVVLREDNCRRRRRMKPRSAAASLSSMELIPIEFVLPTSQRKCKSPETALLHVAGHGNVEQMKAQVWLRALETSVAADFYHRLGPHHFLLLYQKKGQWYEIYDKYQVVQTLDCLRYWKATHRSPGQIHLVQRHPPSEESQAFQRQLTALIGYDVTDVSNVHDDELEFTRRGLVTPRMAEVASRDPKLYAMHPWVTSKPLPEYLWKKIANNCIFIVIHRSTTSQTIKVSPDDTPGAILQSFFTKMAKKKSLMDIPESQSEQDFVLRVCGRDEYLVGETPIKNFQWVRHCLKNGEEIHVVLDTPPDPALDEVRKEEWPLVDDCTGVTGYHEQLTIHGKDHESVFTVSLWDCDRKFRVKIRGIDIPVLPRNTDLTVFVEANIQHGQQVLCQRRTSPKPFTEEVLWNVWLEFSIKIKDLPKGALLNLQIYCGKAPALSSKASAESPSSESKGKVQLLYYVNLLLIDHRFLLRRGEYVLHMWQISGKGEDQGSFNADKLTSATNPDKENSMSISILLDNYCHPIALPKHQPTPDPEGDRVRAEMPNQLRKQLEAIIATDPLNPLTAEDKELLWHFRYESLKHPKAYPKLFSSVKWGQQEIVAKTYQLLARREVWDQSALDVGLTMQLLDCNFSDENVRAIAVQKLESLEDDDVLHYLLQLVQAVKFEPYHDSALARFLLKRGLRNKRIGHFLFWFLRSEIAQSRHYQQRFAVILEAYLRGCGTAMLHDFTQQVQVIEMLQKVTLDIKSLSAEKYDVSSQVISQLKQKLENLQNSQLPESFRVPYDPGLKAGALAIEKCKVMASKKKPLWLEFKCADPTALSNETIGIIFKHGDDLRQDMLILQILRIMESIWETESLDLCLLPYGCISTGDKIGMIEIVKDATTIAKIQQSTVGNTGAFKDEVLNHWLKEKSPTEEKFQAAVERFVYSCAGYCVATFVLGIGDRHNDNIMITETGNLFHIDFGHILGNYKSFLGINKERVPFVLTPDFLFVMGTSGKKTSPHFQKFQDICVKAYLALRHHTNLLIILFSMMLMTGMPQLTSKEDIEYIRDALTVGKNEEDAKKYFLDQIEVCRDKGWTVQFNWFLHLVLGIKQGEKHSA
T1 sequence (Q12809 whole entry): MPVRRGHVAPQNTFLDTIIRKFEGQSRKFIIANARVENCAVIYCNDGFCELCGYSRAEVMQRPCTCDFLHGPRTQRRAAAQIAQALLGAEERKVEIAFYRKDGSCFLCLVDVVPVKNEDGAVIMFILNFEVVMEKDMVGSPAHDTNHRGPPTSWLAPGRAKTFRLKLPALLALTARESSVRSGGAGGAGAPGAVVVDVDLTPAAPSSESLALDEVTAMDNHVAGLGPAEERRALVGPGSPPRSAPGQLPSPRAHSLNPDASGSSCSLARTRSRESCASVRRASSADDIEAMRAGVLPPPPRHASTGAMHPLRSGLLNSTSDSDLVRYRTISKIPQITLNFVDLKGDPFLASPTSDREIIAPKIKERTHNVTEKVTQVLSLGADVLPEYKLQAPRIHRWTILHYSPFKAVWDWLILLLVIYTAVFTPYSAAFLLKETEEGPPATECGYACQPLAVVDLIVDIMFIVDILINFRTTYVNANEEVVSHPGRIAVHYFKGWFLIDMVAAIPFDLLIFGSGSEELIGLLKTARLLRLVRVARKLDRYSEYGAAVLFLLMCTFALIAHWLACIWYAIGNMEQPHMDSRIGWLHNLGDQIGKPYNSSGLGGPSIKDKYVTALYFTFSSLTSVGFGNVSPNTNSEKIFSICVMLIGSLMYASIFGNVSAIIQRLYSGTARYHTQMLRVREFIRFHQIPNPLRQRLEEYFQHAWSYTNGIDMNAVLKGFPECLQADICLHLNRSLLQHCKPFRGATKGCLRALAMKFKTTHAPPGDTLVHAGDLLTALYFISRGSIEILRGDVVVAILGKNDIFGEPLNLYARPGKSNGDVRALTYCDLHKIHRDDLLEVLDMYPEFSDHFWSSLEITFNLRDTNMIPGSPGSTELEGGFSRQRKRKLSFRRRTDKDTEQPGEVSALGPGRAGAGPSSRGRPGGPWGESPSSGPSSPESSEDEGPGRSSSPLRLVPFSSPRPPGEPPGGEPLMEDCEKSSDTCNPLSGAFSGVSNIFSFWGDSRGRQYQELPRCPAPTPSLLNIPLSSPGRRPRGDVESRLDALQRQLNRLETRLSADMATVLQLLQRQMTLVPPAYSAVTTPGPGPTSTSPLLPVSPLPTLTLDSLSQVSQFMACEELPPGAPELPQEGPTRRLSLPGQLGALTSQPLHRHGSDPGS

Turning to `Cc1nc(NC(=O)Nc2ccccc2C(=O)NC(C)C)sc1-c1ccc(S(C)(=O)=O)c(F)c1` [Compound I-127], the Ki at PI3Kγ (setting [2]) was ≤ 30 nM; at PI3Kγ (read-out: PI3Kγ Ki value), 16 nM; at PI3Kα (setting [3]), > 3000 nM; at PI3Kα (read-out: PI3Kα Ki value) it was > 7000 nM. Besides, the inhibition at 10 min, 1 µM against hERG channel (IKr) is 0.6%. Moreover, in data set [1], the “hLMS_ox(at 0.5 μM) %” value was found to be 92.6%.

With `COc1nc(Cl)cc(N2CCc3nc(NC(=O)Nc4cnccc4C(=O)NC(C)C)sc3C2)n1` [Compound I-91], the Ki was ≤ 3 nM on PI3Kγ (setting [2]), 1.4 nM at PI3Kγ (read-out: PI3Kγ Ki value) and > 3000 nM at PI3Kα (setting [3]). On hERG channel (IKr), the inhibition at 10 min, 1 µM turned out to be 0.9%.

With `COc1cncc(-c2ccc3nc(NC(=O)Nc4ccccc4OCCC(C)C)cn3n2)c1` [Compound I-114], the Ki is ≤ 300 nM at PI3Kγ (setting [2]), 33 nM at PI3Kγ (read-out: PI3Kγ Ki value), ≤ 3000 nM at PI3Kα (setting [3]) and 1100 nM at PI3Kα (read-out: PI3Kα Ki value).

For the molecule `COc1nc(Cl)cc(N2CCc3nc(NC(=O)Nc4ccccc4C(=O)NC4CCCOC4)sc3C2)n1` (stereo not shown) [Compound I-197], the inhibition constant (Ki) was ≤ 3 nM on PI3Kγ (setting [2]), 2.3 nM on PI3Kγ (read-out: PI3Kγ Ki value) and > 3000 nM at PI3Kα (setting [3]). This molecule also registered an inhibition at 10 min, 1 µM at hERG channel (IKr) of 4.8%.

Regarding `COc1cc(N2CCc3nc(NC(=O)Nc4ccccc4C(=O)NC4CCOCC4)sc3C2)nc(OC)n1` [Compound I-203], the inhibition at 10 min, 1 µM against hERG channel (IKr) was 6.7%. Moreover, in data set [1], the “hLMS_ox(at 0.5 μM) %” value turned out to be 88.5%.

As for `CC(C)NC(=O)c1ccccc1NC(=O)Nc1nc2c(s1)CN(c1cncc(C(F)(F)F)c1)CC2` [Compound I-131], the Ki at PI3Kγ (setting [2]) was ≤ 3 nM; at PI3Kγ (read-out: PI3Kγ Ki value) it was 0.8 nM; at PI3Kα (setting [3]), > 3000 nM. This molecule also displayed an inhibition at 10 min, 1 µM against hERG channel (IKr) of 3.9%.

As for `COc1cc(N2CCc3nc(NC(=O)Nc4ccccc4C(=O)NCCF)sc3C2)nc(OC)n1` [Compound I-88], the inhibition at 10 min, 1 µM against hERG channel (IKr) was determined as 5.7%. The “hLMS_ox(at 0.5 μM) %” value in data set [1] came out at 88.2%.

As to `COc1cncc(-c2cc(NC(=O)Nc3ccccc3C(=O)NC(C)C)nn2C)c1` [Compound I-226], the Ki on PI3Kγ (setting [2]) is ≤ 3000 nM; at PI3Kγ (read-out: PI3Kγ Ki value) it was 830 nM; on PI3Kα (setting [3]) it was > 3000 nM. Besides, the “hLMS_ox(at 0.5 μM) %” value in data set [1] stood at 82.5%.

`COc1cc(N2CCc3nc(NC(=O)Nc4ccccc4C(=O)NC(C)C)sc3C2)nc(OC)n1` [Compound I-12]: the Ki on PI3Kγ (setting [2]) was ≤ 30 nM; at PI3Kγ (read-out: PI3Kγ Ki value), 9.6 nM; at PI3Kα (setting [3]) it was > 3000 nM; at PI3Kα (read-out: PI3Kα Ki value), > 12000 nM.

As for `COc1cc(N2CCc3nc(NC(=O)Nc4cn(C)nc4C(=O)NCC(F)(F)F)sc3C2)nc(OC)n1` [Compound I-148], the Ki on PI3Kγ (setting [2]) was ≤ 30 nM; at PI3Kγ (read-out: PI3Kγ Ki value), 5.5 nM; at PI3Kα (setting [3]), ≤ 3000 nM. Also, on hERG channel (IKr), the inhibition at 10 min, 1 µM was found to be 3.3%. The “hLMS_ox(at 0.5 μM) %” value in data set [1] is listed as 87.9%.

`COc1cc(N2CCc3nc(NC(=O)Nc4ccccc4C(=O)NN4CCN(C)CC4)sc3C2)nc(OC)n1` [Compound I-195]: the “hLMS_ox(at 0.5 μM) %” value in data set [1] came to 110%.

In the case of `COc1cc(N2CCc3nc(NC(=O)Nc4ccccc4C(=O)NC(C)C(O)C(F)(F)F)sc3C2)nc(OC)n1` (stereo not shown) [Compound I-139], the “hLMS_ox(at 0.5 μM) %” value in data set [1] is 84.8%.

Regarding `CC(C)NC(=O)c1ccccc1NC(=O)Nc1nc2c(s1)CN(c1cccc(S(C)(=O)=O)c1)CC2` [Compound I-198], the inhibition at 10 min, 1 µM at hERG channel (IKr) amounted to 5.9%.

On to `Cc1nc(NC(=O)Nc2ccccc2C(=O)NC(C)C)sc1-c1csc(S(=O)(=O)N(C)CCN(C)C)c1` [Compound I-191], for which the inhibitory constant (Ki) on PI3Kγ (read-out: PI3Kγ Ki value) was 300 nM.

These data come from patent publication US20120071475A1, “UREA DERIVATIVES HAVING PI3K-INHIBITING ACTIVITY” (SHIONOGI & CO., LTD., priority 2009, published 2012).
